Values of other authors in patent publication US20110052625A1, “COMPOSITIONS AND METHODS FOR TREATING DIABETES USING LISOFYLLINE ANALOGS AND ISLET NEOGENESIS ASSOCIATED PEPTIDE” (DIAKINE THERAPEUTICS, INC., priority 2008, published 2011).
Ends that are not written are not given here.

Test system: overt diabetic NOD (Non-Obese Diabetic) mice
Conditions: given alone; cited from earlier work

**Q.** For “GLP-1: "a 300-amino-acid (peptide) incretin synthesized in the small and large intestine by the L-type cells" (HAEGTFTSDVSSYLEGQAAKEFIAWLVKGR; ends and bridges not checked; UniProt P01275 98-127, looked up)”, which effect on hyperglycemia is on record?
**A.** no effect
